One assay addresses recombinant PIM-1 (Homo sapiens, UniProt P11309). The assay can be described thus: PIM-1 kinase assay. It is filed as biochemical. The note with it: for inhibition at 0.5 µM: 500 nM compound, read-out: PIM1: % inh 500 nM. The method in brief: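 Recombinant PIM-1 (1 ng) with 100 uM KKRNRTLTK peptide, 15 uM ATP plus [γ-33P]ATP, 10 mM Mg acetate, MOPS pH 7.0, 4% DMSO. Reaction 40 min at 23° C, quenched with phosphoric acid; labeled peptide captured on phosphocellulose filters and counted by scintillation.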

In another assay the test system is MV-4-11. The assay can be described thus: Alamar Blue cell proliferation assay, MV-4-11. It is filed as cell-based. The note with it: Homo sapiens, MV4-11. An outline of the steps:
(§1)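 Cells were seeded at 4,000–5,000/well and exposed to compound dilutions for 4 days at 37 °C, 5% CO2, humidified. Alamar Blue was added for 4 h, with fluorescence read at 544 nm excitation and 590 nm emission. Controls were untreated cells and medium-only wells.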

Assay [1] relates to K-562 human chronic myelogenous leukemia (CML) cells. The assay can be described thus: Alamar Blue cell proliferation assay, K-562. The class given is cell-based. The method in brief:
as §1
(In general: The colour change of resazurin is a common sign of viable cells or microbes.)

Assay [2] deals with MDA-MB231 human breast cancer cells. The assay can be described thus: Alamar Blue cell proliferation assay, MDA-MB231. The note with it: MDA-MB-231, read-out: MDAMB231 IC50. The class given is cell-based. The procedure: (§2) A representative cell-proliferation assay protocol using Alamar Blue dye (stored at 4° C., use 20 ul per well) is described hereafter.
(§3) a. Split and trypsinize cells.
(§4) b. Count cells using hemocytometer.
(§5) c. Plate 4,000-5,000 cells per well in 100 μl of medium and seed into a 96-well plate according to the following plate layout. Add cell culture medium only to wells B10 to B12. Wells B1 to B9 have cells but no compound added.
(§6) d. Add 100 μl of 2× drug dilution to each well in a concentration shown in the plate layout above. At the same time, add 100 μl of media into the control wells (wells B10 to B12). Total volume is 200 μl/well.
(§7) e. Incubate four (4) days at 37° C., 5% CO2 in a humidified incubator.
(§8) f. Add 20 μl Alamar Blue reagent to each well.
(§9) g. Incubate for four (4) hours at 37° C., 5% CO2 in a humidified incubator.
(§10) h. Record fluorescence at an excitation wavelength of 544 nm and emission wavelength of 590 nm using a microplate reader.
(§11) In the assays, cells are cultured with a test compound for approximately four days, the dye is then added to the cells and fluorescence of […] dye is detected after approximately four hours. Different types of cells can be utilized in the assays (e.g., HCT-116 human colorectal carcinoma cells, PC-3 human prostatic cancer cells, MDA-MB231 human breast cancer cells, K-562 human chronic myelogenous leukemia (CML) cells, MiaPaca human pancreatic carcinoma cells, MV-4 human acute myeloid leukemia cells, and BxPC3 human pancreatic adenocarcinoma cells).

Assay [3] has as its system MiaPaca human pancreatic carcinoma cells. The assay can be described thus: Alamar Blue cell proliferation assay, MiaPaCa. The class given is cell-based. The note with it: MIA PaCa-2. How it is done:
as §2, §3, §4, §5, §6, §7, §8, §9, §10, §11

For assay [4], the system named is PC-3 human prostatic cancer cells. The experiment in a line: Alamar Blue cell proliferation assay, PC3. It is filed as cell-based. How it is done: as §2, §3, §4, §5, §6, §7, §8, §9, §10, §11
In the next assay the target is T1, recombinant human CK2 (Homo sapiens, UniProt P68400).
T1 construct: purchased Upstate
The assay can be described thus: cell-free CK2 assay. The class given is biochemical. The method in brief:
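Recombinant human CK2 (25 ng) phosphorylated peptide RRRDDDSDDD (1 mM stock) in MOPS pH 7.2 buffer with vanadate and EGTA, started with 75 micromolar ATP stock spiked with [γ-33P]ATP, 10 minutes at 30 degrees C. Phosphoric acid-quenched peptide was captured on phosphocellulose and counted by scintillation.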

Assay [5] concerns BxPC3 human pancreatic adenocarcinoma cells. The experiment in a line: Alamar Blue cell proliferation assay, BxPC3. The class given is cell-based. To be noted: BXPC-3. The procedure: as §2, §3, §4, §5, §6, §7, §8, §9, §10, §11
Another assay concerns the target T2, FLT3 (Homo sapiens, UniProt P36888).
T2 sequence (P36888 27-993): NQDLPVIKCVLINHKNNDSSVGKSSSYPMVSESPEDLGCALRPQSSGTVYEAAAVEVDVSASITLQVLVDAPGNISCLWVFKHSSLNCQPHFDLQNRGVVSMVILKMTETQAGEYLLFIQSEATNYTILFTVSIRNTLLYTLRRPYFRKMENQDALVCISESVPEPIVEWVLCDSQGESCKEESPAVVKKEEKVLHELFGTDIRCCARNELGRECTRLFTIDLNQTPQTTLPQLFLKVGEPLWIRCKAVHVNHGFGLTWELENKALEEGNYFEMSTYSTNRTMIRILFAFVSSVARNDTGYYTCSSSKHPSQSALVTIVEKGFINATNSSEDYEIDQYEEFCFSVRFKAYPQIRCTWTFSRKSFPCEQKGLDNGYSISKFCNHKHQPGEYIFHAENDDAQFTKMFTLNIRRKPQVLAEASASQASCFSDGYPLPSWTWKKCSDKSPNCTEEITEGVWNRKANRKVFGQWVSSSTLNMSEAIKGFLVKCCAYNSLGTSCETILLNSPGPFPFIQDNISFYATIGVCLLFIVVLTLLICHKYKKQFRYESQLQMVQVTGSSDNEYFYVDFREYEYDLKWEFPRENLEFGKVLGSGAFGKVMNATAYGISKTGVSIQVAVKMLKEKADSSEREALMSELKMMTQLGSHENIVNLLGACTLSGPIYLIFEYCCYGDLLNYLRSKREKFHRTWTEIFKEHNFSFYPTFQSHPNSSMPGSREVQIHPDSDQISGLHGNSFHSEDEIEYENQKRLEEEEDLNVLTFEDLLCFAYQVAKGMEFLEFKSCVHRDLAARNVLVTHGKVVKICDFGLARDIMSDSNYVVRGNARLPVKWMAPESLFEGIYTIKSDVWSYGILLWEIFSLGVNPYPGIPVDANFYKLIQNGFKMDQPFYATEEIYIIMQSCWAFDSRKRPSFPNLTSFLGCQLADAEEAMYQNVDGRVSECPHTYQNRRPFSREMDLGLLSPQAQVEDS
The assay can be described thus: FLT3 inhibition. The class given is biochemical.

The next assay concerns the target recombinant human PIM2 (Homo sapiens, UniProt Q9P1W9). The assay can be described thus: PIM-2 kinase assay. The class given is biochemical. An outline of the steps:
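Radiometric filter-binding assay: 4 ng recombinant human PIM2 in MOPS pH 7.0 buffer with test compound in DMSO, started with 75 uM ATP stock (containing [γ-33P]ATP and MgCl2) and 1 mM RSRSSYPAGT peptide stock. Reaction run 10 min at 30 °C, stopped with phosphoric acid, and phosphopeptide captured on phosphocellulose and counted by scintillation.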

Another assay relates to MDA-MB45. The assay can be described thus: Alamar Blue cell proliferation assay, MDA-MB45. It is filed as cell-based. The procedure: as §2, §3, §4, §5, §6, §7, §8, §9, §10, §11
A further assay relates to SUM-149PT. The assay can be described thus: Alamar Blue cell proliferation assay, SUM-149PT. The class given is cell-based. To be noted: Homo sapiens, SUM149PT. The procedure:
as §2, §3, §4, §5, §6, §7, §8, §9, §10, §11

In assay [6] the test system is leukemic cells from AML patients. The note with it: cited from earlier work.
The test system of the next assay is MV-4-11 (AML) xenograft. The note with it: MV-4-11 (AML) xenograft model; cited from earlier work.
Another assay concerns MOLM-13 (AML) xenograft. To be noted: MOLM-13 (AML) xenograft model; cited from earlier work.
Setting [7] is: 15 μM ATP, read-out: PIM1: IC50 (15 μM ATP).

pIC50: −log10 of the molar value. Read-outs that look alike come from different tables or passages of the source.

We go through five molecules from US20100298302A1, “NOVEL PROTEIN KINASE MODULATORS” (priority 2009, published 2010).

The pIC50 is the negative decadic logarithm of the IC50, by convention in mol/L.

recombinant PIM-1, sequence (P11309 whole entry): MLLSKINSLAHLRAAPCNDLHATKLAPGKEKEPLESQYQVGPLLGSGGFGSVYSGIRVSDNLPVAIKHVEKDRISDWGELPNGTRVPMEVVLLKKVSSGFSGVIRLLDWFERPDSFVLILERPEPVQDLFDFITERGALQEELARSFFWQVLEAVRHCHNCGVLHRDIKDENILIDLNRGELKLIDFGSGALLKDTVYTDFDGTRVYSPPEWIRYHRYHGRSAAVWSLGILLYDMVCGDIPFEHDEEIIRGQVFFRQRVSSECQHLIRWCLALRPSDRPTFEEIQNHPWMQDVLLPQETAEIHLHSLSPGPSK
T1 sequence (P68400 whole entry): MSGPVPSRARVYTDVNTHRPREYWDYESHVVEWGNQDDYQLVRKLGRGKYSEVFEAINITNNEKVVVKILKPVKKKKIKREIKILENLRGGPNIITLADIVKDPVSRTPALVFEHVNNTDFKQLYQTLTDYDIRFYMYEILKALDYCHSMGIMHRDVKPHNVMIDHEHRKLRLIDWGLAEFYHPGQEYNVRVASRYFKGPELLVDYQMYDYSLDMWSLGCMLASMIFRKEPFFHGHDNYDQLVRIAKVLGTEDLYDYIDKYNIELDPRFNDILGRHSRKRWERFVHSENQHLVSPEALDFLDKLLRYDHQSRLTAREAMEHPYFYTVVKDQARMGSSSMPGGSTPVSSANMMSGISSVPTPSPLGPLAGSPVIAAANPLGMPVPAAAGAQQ
T1 sequence (P67870 whole entry partner): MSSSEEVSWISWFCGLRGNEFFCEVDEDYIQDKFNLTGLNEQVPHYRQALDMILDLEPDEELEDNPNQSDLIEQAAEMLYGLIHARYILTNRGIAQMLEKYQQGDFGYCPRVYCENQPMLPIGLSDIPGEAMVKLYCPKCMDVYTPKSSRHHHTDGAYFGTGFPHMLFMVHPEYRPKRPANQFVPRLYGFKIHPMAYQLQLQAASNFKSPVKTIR
recombinant human PIM2, sequence (Q9P1W9 whole entry): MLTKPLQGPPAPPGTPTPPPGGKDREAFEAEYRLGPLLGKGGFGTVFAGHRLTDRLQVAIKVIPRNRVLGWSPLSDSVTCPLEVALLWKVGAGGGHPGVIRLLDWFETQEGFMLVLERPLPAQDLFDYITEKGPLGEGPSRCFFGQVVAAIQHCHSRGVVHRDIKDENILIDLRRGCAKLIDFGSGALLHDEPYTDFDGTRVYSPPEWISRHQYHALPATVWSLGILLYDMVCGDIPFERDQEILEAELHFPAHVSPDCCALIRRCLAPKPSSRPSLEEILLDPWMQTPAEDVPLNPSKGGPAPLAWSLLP

For `O=C(O)c1ccc2c(c1)nc(NCC(F)(F)F)c1cccn12`, the inhibition at 0.5 µM at recombinant PIM-1 was determined as 52.9%. Moreover, the negative logarithm of the IC50 (pIC50) is 6.38 at recombinant PIM-1 (setting [7]); under 5.00 with MV-4-11 (Table 4); under 5.00 in [1] (K562, Table 4); under 5.00 in assay [2]; under 5.00 in [3]; under 4.52 in assay [4].

With `O=C(O)c1ccc2c(c1)nc(Nc1ccc(F)c(Cl)c1)c1cccn12`, the inhibition at 0.5 µM at recombinant PIM-1 was 91.4%. The pIC50 is 7.15 on recombinant PIM-1 (setting [7]); 5.16 in the assay with MV-4-11 (Table 4); 4.97 in assay [1] (K562, Table 4); 4.92 in assay [2]; under 5.00 in assay [3]; under 5.00 in assay [4].

Turning to `Clc1ccccc1Nc1nc2c(-c3nnc[nH]3)cccc2n2cccc12`, the pIC50 on recombinant PIM-1 (Table 5, read-out: PIM1 IC50) was over 7.00; in the assay on MV-4-11 (Table 5), over 5.30; at recombinant human CK2, over 7.00; in [1] (K562, Table 5), under 5.00; in [5], over 5.00; at FLT3, under 5.00. The results for the pIC50 on recombinant human PIM2, in the assay on MDA-MB45 and in the assay on SUM-149PT were over 7.00, over 5.30 and over 5.30, respectively.

For the molecule `CN(C)C[C@@H]1CCn2cc(c3ccccc32)C2=C(C(=O)NC2=O)c2cn(c3ccccc23)CCO1` [Ly5333′531], the “effect on cell growth and cell death” value in assay [6] was “suppressed cell growth and induced cell death”.

With `CN1CCC(CNc2ccc3ncc(-c4cccc(OC(F)(F)F)c4)n3n2)CC1` [SGI-1776], the tumor regression result in the assay on MV-4-11 (AML) xenograft and with MOLM-13 (AML) xenograft was “significant tumor regression” in each case.
